Converted amounts (≈) assume the structure as drawn. “And” between values parts separate entries of the source, which are not always exact repeats. Identical values can stand only once. Like-named read-outs stand apart in the source and are kept apart here.
What was measured:
[1] = In vitro metabolism in dog liver microsomes; type: in vitro ADME
Description: The total volume of each incubation system was 200 μL, and the medium was 100 mM phosphate buffer solution (PBS, pH7.4) comprising a final concentration of 3 μM DC037009 and 2 mM NADPH. A37° C. water bath was used for incubation. After 3 minutes of pre-incubation, various liver microsomes protein were added into the buffer-substrate-cofactors mixture to start reaction. The concentration of liver microsomal protein of various species was 1.0 mg/mL. After reacting 60 min, the reaction was terminated with isovolumetric ice-cold acetonitrile. The total volume of blank was 200 μL, and the medium was 100 mM phosphate buffer solution (PBS, pH 7.4), comprising a final concentration of 3 μM DC037009 and heat inactivated microsomal proteins. All incubation samples were double.
A 150 μL sample from each of double incubation samples was mixed. A 300 μL of acetonitrile was added, mixed by vortexing for 1 min, and centrifuged 5 min (11000 rpm). The supernatant was placed in a 10 mL tube, and dried in 40° C. with nitrogen stream. The residue was dissolved with 100 μL methanol/water (1:9, v/v). A 10 μL sample was taken for UPLC/Q-TOF MS analysis.

[2] = Pharmacokinetics study in rats (gavage and intravenous); type: in vivo, SD rats; details: rat
Description: (§1) Gavage administration to rats. 3 healthy SD rats (male, weighed 200-220 g) were fasted for 12 hours before the administration but were allowed to drink water. Compound DC037009 was formulated with 10% DMSO/10% Tween 80/80% saline and was administered by 20 mg/kg dose and the dosing volume was 10 mL/kg.
as §1, with “Intravenous administration” for “Gavage administration”, “administered via the rat tail vein injection” for “administered”, “by 10” for “by 20”, “was 5” for “was 10”
Intravenous administration: 5 min, 0.25, 0.5, 1.0, 2.0, 3.0, 5.0, 7.0, 9.0 and 24 hrs after administration.
At the above time points, 0.3 mL blood obtained from post-eye venous plexus of rat was set into a heparinized tube, which was 11000 rpm centrifuged for 5 min, and the plasma was separated and frozen at −20° C. in a refrigerator.

[3] = Solubility in different pH solution and pH changes of the solution; type: physicochemical
pKa determination = type: physicochemical
[4] = male, SD, plasma, po, 20 mg/kg, gavage 20 mg/kg, individual animals 1-3
[5] = male, SD, plasma, po, 20 mg/kg, gavage 20 mg/kg, mean of 3
[6] = gavage 20 mg/kg, individual animals 1-3, 20 mg/kg
[7] = pH = 1 solution after adding compound
[8] = pH = 2 solution after adding compound
[9] = pH = 4 solution after adding compound
[10] = pH = 6 solution after adding compound
[11] = pH = 8 solution after adding compound

COc1cc2c(cc1OC)CN1CCc3cc4c(cc3[C@@H]1C2)OCO4 [DC037009, S-(−)-2,3-methylenedioxy-10,11-dimethoxy-5,8,13,13a-tetrahydro-6H-dibenzo[a,g]quinolizine]
Mass area, dog ([1]; 3 μM DC037009, 1.0 mg/mL microsomal protein, NADPH, 60 min, UPLC/Q-TOF MS): 171.3
kinds of metabolites detected in dog liver microsome ([1]; 60 min incubation): six
metabolic stability in dog liver microsome ([1]; 60 min incubation): in second place
bioavailability ([2]; male, SD, plasma, oral, gavage 20 mg/kg versus intravenous 10 mg/kg): 34.2%
clearance ([2]; male, SD, plasma, intravenous injection 10 mg/kg, read-out: plasma clearance rate CL (converted)): 39.7 mL/min/kg
Vd ([2]; male, SD, plasma, intravenous injection 10 mg/kg, read-out: volume distribution stead state Vss): 3.49 ± 0.24 L/kg
half-life ([2]; male, SD, plasma, iv, 10 mg/kg, intravenous injection 10 mg/kg): 5.44 ± 0.85 h
AUC0-t ([2]; male, SD, plasma, iv, 10 mg/kg, intravenous injection 10 mg/kg, read-out: AUC0-t): 4200 ± 141 ng·h/mL
AUC(0-inf) [2, 4]: 2630 ng·h/mL
half-life [2, 4]: 4.2 h
AUC0-t ([2]; male, SD, plasma, po, 20 mg/kg, gavage 20 mg/kg, individual animals 1-3, read-out: AUC0-t): 2570 ng·h/mL
Cmax ([2]; male, SD, plasma, po, 20 mg/kg, gavage 20 mg/kg, individual animals 1-3, read-out: Cmax): 289 ng/mL
MRT ([2]; male, SD, plasma, po, 20 mg/kg, gavage 20 mg/kg, individual animals 1-3, read-out: MRT): 6.45 h
Tmax ([2]; male, SD, plasma, po, 20 mg/kg, gavage 20 mg/kg, individual animals 1-3, read-out: Tmax): 0.5 h
AUC(0-inf) [2, 5]: 2890 ng·h/mL
half-life [2, 5]: 3.26 ± 0.82 h
AUC0-t ([2]; male, SD, plasma, po, 20 mg/kg, gavage 20 mg/kg, mean of 3, read-out: AUC0-t): 2870 ± 798 ng·h/mL
Cmax ([2]; male, SD, plasma, po, 20 mg/kg, gavage 20 mg/kg, mean of 3, read-out: Cmax): 453 ± 147 ng/mL
MRT ([2]; male, SD, plasma, po, 20 mg/kg, gavage 20 mg/kg, mean of 3, read-out: MRT): 5.04 h
Tmax ([2]; male, SD, plasma, po, 20 mg/kg, gavage 20 mg/kg, mean of 3, read-out: Tmax): 0.67 ± 0.29 h
AUC0-t [2, 6]: 2260 ng·h/mL and 3771 ng·h/mL
AUC0-∞ [2, 6]: 2265 ng·h/mL and 3779 ng·h/mL
Cmax [2, 6]: 494 ng/mL and 575 ng/mL
MRT [2, 6]: 4.00 h and 4.67 h
Tmax [2, 6]: 1.00 h
t1/2 [2, 6]: 2.89 h and 2.70 h
AUC0-t ([2]; gavage 20 mg/kg, mean of 3, 20 mg/kg): 2260 ng·h/mL
pH of solution after adding compound [3]: would increase
solubility in acidic solution compared with alkaline solution [3]: greater than that in alkaline solution
solubility ([3]; pH 2 solution, pH 2, simulated gastric fluid, pH = 2 solution, read-out: Solubility (1)): > 1000 µg/mL
solubility ([3]; pH 2 solution, pH 2, simulated gastric fluid, pH = 2 solution, read-out: Solubility (2)): > 1000 µg/mL
solubility ([3]; pH 4 solution, pH 4, aqueous buffer, pH = 4 solution, read-out: Solubility (1)): 401 µg/mL (≈ 1180 µM)
solubility ([3]; pH 4 solution, pH 4, aqueous buffer, pH = 4 solution, read-out: Solubility (2)): 403 µg/mL (≈ 1190 µM)
Dissolving capacity ([3]; pH = 1 solution): Slightly soluble
pH value (1) [3, 7]: 1.09
pH value (2) [3, 7]: 1.03
solubility ([3]; pH = 1 solution, pH 1, simulated gastric fluid, pH = 1 solution, read-out: Solubility (1)): > 1000 µg/mL
solubility ([3]; pH = 1 solution, pH 1, simulated gastric fluid, pH = 1 solution, read-out: Solubility (2)): > 1000 µg/mL
Dissolving capacity ([3]; pH = 2 solution): Slightly soluble
pH value (1) [3, 8]: 2.02
pH value (2) [3, 8]: 2.07
Dissolving capacity ([3]; pH = 4 solution): Slightly soluble
pH value (1) [3, 9]: 5.02
pH value (2) [3, 9]: 5.10
Dissolving capacity ([3]; pH = 6 solution): Sparingly
pH value (1) [3, 10]: 6.11
pH value (2) [3, 10]: 6.14
solubility ([3]; pH = 6 solution, pH 6, aqueous buffer, pH = 6 solution, read-out: Solubility (1)): 46 µg/mL (≈ 136 µM)
solubility ([3]; pH = 6 solution, pH 6, aqueous buffer, pH = 6 solution, read-out: Solubility (2)): 50.2 µg/mL (≈ 148 µM)
Dissolving capacity ([3]; pH = 8 solution): Sparingly
pH value (1) [3, 11]: 8.06
pH value (2) [3, 11]: 8.07
solubility ([3]; pH = 8 solution, pH 8, aqueous buffer, pH = 8 solution, read-out: Solubility (1)): < 10 µg/mL
solubility ([3]; pH = 8 solution, pH 8, aqueous buffer, pH = 8 solution, read-out: Solubility (2)): < 10 µg/mL
pKa (pKa determination; methanol, solvent CH3OH, read-out: pKa (CH3OH)): 6.81
pKa (pKa determination; water, solvent H2O, read-out: pKa (H2O)): 7.28
